In ChEMBL document CHEMBL3400097, “Effect of arginine methylation on the RNA recognition and cellular uptake of Tat-derived peptides” (Bioorg Med Chem, 2015):

What was measured:
Jurkat [1] = test: Cytotoxicity against human Jurkat cells assessed as cell viability at 120 uM after 4 hrs by WST-1 assay; assay type: cell-based
Nucleic Acid = test: Binding affinity to HIV TAR RNA by electrophoretic mobility shift assay in presence of Escherichia coli tRNA; assay type: nucleic-acid assay, Human immunodeficiency virus
Jurkat [2] = test: Cellular uptake in human Jurkat cells at 7 to 120 uM after 15 mins by 6-carboxyfluorescein staining-based flow cytometry; assay type: ADME, cell-based; details: 0.25 h

Row | SMILES | Activity (Jurkat [1]) | Kd (Nucleic Acid) [nM] | Drug uptake (Jurkat [2])
1 | CNC(=N)NCCC[C@H](NC(=O)[C@H](CCCCN)NC(=O)[C@H](CCCCN)NC(=O)[C@H](CCCNC(=N)N)NC(=O)CNC(=O)[C@H](Cc1ccc(O)cc1)NC(C)=O)C(=O)N[C@@H](CCCNC(=N)N)C(=O)N[C@@H](CCC(N)=O)C(=O)N[C@@H](CCCNC(=N)N)C(=O)N[C@@H](CCCNC(=N)N)C(=O)N[C@@H](CCCNC(=N)N)C(N)=O | Non-toxic | 310 | –
2 | CC(=O)N[C@@H](Cc1ccc(O)cc1)C(=O)NCC(=O)N[C@@H](CCCNC(=N)N)C(=O)N[C@@H](CCCCN)C(=O)N[C@@H](CCCCN)C(=O)N[C@@H](CCCNC(=N)N)C(=O)N[C@@H](CCCNC(=N)N)C(=O)N[C@@H](CCC(N)=O)C(=O)N[C@@H](CCCNC(=N)N(C)C)C(=O)N[C@@H](CCCNC(=N)N)C(=O)N[C@@H](CCCNC(=N)N)C(N)=O | Non-toxic | 398 | –
3 | C/N=C(\NC)NCCC[C@H](NC(=O)[C@H](CCC(N)=O)NC(=O)[C@H](CCCNC(=N)N)NC(=O)[C@H](CCCNC(=N)N)NC(=O)[C@H](CCCCN)NC(=O)[C@H](CCCCN)NC(=O)[C@H](CCCNC(=N)N)NC(=O)CNC(=O)[C@H](Cc1ccc(O)cc1)NC(C)=O)C(=O)N[C@@H](CCCNC(=N)N)C(=O)N[C@@H](CCCNC(=N)N)C(N)=O | Non-toxic | 527 | –
4 | CC(=O)N[C@@H](Cc1ccc(O)cc1)C(=O)NCC(=O)N[C@@H](CCCNC(=N)N)C(=O)N[C@@H](CCCCN)C(=O)N[C@@H](CCCCN)C(=O)N[C@@H](CCCNC(=N)N(C)C)C(=O)N[C@@H](CCCNC(=N)N)C(=O)N[C@@H](CCC(N)=O)C(=O)N[C@@H](CCCNC(=N)N)C(=O)N[C@@H](CCCNC(=N)N)C(=O)N[C@@H](CCCNC(=N)N)C(N)=O | Non-toxic | 385 | –
5 | CC(=O)N[C@@H](Cc1ccc(O)cc1)C(=O)NCC(=O)N[C@@H](CCCNC(=N)N)C(=O)N[C@@H](CCCCN)C(=O)N[C@@H](CCCCN)C(=O)N[C@@H](CCCNC(=N)N)C(=O)N[C@@H](CCCNC(=N)N)C(=O)N[C@@H](CCC(N)=O)C(=O)N[C@@H](CCCNC(=N)N)C(=O)N[C@@H](CCCNC(=N)N)C(=O)N[C@@H](CCCNC(=N)N)C(N)=O | Non-toxic | 260 | –
6 | CNC(=N)NCCC[C@H](NC(=O)CNC(=O)[C@H](Cc1ccc(O)cc1)NC(=O)CCNC(=O)c1ccc2c(c1)C1(OC2=O)c2ccc(O)cc2Oc2cc(O)ccc21)C(=O)N[C@@H](CCCCN)C(=O)N[C@@H](CCCCN)C(=O)N[C@@H](CCCNC(=N)N)C(=O)N[C@@H](CCCNC(=N)N)C(=O)N[C@@H](CCC(N)=O)C(=O)N[C@@H](CCCNC(=N)N)C(=O)N[C@@H](CCCNC(=N)N)C(=O)N[C@@H](CCCNC(=N)N)C(N)=O | – | – | Active
7 | CN(C)C(=N)NCCC[C@H](NC(=O)[C@H](CCCNC(=N)N)NC(=O)[C@H](CCC(N)=O)NC(=O)[C@H](CCCNC(=N)N)NC(=O)[C@H](CCCNC(=N)N)NC(=O)[C@H](CCCCN)NC(=O)[C@H](CCCCN)NC(=O)[C@H](CCCNC(=N)N)NC(=O)CNC(=O)[C@H](Cc1ccc(O)cc1)NC(=O)CCNC(=O)c1ccc2c(c1)C1(OC2=O)c2ccc(O)cc2Oc2cc(O)ccc21)C(=O)N[C@@H](CCCNC(=N)N)C(N)=O | – | – | Active
8 | C/N=C(\NC)NCCC[C@H](NC(=O)[C@H](CCCNC(=N)N)NC(=O)[C@H](CCC(N)=O)NC(=O)[C@H](CCCNC(=N)N)NC(=O)[C@H](CCCNC(=N)N)NC(=O)[C@H](CCCCN)NC(=O)[C@H](CCCCN)NC(=O)[C@H](CCCNC(=N)N)NC(=O)CNC(=O)[C@H](Cc1ccc(O)cc1)NC(=O)CCNC(=O)c1ccc2c(c1)C1(OC2=O)c2ccc(O)cc2Oc2cc(O)ccc21)C(=O)N[C@@H](CCCNC(=N)N)C(N)=O | – | – | Active
9 | CN(C)C(=N)NCCC[C@H](NC(=O)[C@H](CCCCN)NC(=O)[C@H](CCCCN)NC(=O)[C@H](CCCNC(=N)N)NC(=O)CNC(=O)[C@H](Cc1ccc(O)cc1)NC(=O)CCNC(=O)c1ccc2c(c1)C1(OC2=O)c2ccc(O)cc2Oc2cc(O)ccc21)C(=O)N[C@@H](CCCNC(=N)N)C(=O)N[C@@H](CCC(N)=O)C(=O)N[C@@H](CCCNC(=N)N)C(=O)N[C@@H](CCCNC(=N)N)C(=O)N[C@@H](CCCNC(=N)N)C(N)=O | – | – | Active
